The source of these data is ChEMBL document CHEMBL4118098, “Discovery of DS28120313 as a potent orally active hepcidin production inhibitor: Design and optimization of novel 4,6-disubstituted indazole derivatives” (Bioorg Med Chem Lett, 2017).

Assay [1] concerns the target Rho-associated protein kinase 2 (Homo sapiens) (UniProt O75116). Nature of the assay: Inhibition of ROCK2 (unknown origin) at 0.19 uM relative to control.
In assay [2] the target is SRSF protein kinase 3 (Homo sapiens) (UniProt Q9UPE1). Put plainly: Inhibition of MSSK1 (unknown origin) at 0.19 uM relative to control.
Assay [3] addresses T1, MAP kinase-activated protein kinase 5 (Homo sapiens) (UniProt Q8IW41).
T1 sequence (whole entry): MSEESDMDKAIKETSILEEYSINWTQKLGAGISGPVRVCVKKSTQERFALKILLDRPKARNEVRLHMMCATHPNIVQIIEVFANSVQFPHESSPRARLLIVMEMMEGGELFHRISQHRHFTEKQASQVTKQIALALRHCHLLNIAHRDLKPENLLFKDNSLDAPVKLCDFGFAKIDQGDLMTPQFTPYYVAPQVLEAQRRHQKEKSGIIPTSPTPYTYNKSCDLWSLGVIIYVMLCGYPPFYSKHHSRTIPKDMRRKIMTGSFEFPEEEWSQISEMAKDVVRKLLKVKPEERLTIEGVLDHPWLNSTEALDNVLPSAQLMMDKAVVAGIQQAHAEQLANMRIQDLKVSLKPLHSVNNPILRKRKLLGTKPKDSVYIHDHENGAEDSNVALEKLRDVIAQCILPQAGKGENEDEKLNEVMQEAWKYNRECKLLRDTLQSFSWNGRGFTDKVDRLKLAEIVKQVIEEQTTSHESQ
Nature of the assay: Inhibition of PRAK (unknown origin) at 0.19 uM relative to control.

The target in assay [4] is T2, Serine/threonine-protein kinase D1 (Homo sapiens) (UniProt Q15139).
T2 sequence (whole entry): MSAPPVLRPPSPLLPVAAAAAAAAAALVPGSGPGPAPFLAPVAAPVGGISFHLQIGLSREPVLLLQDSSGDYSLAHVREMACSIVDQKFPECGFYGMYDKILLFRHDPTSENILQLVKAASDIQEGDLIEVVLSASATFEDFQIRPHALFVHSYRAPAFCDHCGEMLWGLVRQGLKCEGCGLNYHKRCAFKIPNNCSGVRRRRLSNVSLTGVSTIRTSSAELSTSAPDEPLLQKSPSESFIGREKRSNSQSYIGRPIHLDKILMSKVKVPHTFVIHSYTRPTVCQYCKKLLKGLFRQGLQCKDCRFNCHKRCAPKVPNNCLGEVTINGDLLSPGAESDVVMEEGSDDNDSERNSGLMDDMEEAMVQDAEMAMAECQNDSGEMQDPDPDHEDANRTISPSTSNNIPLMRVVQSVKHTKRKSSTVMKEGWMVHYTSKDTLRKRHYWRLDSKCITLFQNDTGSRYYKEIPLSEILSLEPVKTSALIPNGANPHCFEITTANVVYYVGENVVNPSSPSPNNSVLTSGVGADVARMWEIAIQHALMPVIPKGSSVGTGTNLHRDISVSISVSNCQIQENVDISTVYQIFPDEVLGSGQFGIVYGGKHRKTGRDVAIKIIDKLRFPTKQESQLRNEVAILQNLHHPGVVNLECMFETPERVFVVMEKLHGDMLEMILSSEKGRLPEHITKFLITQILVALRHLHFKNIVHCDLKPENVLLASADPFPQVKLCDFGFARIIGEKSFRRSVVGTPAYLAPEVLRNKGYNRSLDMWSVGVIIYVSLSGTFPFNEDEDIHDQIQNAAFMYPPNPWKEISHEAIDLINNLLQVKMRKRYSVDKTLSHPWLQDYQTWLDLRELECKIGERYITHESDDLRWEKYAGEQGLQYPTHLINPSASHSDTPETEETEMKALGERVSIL
Put plainly: Inhibition of PKD1 (unknown origin) at 0.19 uM relative to control.

The target in assay [5] is Serine/threonine-protein kinase PAK 4 (Homo sapiens) (UniProt O96013). Nature of the assay: Inhibition of PAK4 (unknown origin) at 0.19 uM relative to control.
The test system of assay [6] is Fibroblast growth factor receptor 2 (Homo sapiens), P21802 [N549H]. Nature of the assay: Inhibition of FGFR2 N549H mutant (unknown origin) at 0.19 uM relative to control.
Chain of Fibroblast growth factor receptor 2 (Homo sapiens), P21802 [N549H] (P21802 whole entry N549H): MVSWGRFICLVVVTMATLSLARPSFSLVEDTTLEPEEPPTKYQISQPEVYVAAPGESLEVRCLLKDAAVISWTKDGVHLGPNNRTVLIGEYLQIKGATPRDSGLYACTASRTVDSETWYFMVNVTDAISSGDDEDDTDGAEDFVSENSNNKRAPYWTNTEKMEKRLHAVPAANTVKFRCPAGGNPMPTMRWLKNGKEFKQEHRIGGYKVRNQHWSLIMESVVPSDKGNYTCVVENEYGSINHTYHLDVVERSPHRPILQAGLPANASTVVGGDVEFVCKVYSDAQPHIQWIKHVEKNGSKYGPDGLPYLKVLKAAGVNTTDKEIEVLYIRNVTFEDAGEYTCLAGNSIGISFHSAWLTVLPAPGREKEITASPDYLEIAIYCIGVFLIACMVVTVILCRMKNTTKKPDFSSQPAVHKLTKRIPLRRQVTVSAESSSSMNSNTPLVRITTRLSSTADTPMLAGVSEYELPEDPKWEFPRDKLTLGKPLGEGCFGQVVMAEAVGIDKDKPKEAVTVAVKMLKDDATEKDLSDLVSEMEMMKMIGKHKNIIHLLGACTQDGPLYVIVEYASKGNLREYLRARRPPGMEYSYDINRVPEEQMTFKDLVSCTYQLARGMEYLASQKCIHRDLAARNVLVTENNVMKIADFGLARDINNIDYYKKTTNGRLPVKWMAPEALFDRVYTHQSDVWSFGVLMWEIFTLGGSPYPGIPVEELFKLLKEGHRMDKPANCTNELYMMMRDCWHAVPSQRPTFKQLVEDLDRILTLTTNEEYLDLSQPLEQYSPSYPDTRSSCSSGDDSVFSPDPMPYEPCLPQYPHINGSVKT
Assay [7] concerns the target T3, Testis-specific serine/threonine-protein kinase 2 (Homo sapiens) (UniProt Q96PF2).
T3 sequence (whole entry): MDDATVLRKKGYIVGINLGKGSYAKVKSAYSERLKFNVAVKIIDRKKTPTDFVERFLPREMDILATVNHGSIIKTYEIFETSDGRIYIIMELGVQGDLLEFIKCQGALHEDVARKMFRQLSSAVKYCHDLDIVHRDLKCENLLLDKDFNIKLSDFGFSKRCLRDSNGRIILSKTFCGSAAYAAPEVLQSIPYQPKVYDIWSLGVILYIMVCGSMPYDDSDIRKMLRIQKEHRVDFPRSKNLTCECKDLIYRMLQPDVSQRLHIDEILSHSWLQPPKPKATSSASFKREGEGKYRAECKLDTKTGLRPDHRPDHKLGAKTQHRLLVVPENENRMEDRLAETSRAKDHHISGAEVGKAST
Put plainly: Inhibition of TSSK2 (unknown origin) at 0.19 uM relative to control.

For assay [8], the system named is Mast/stem cell growth factor receptor Kit (Homo sapiens), P10721 [T670I]. Nature of the assay: Inhibition of KIT T670I mutant (unknown origin) at 0.164 uM relative to control.
The target in assay [9] is Ribosomal protein S6 kinase alpha-2 (Homo sapiens) (UniProt Q15349). Put plainly: Inhibition of RSK3 (unknown origin) at 0.164 uM relative to control.
For assay [10], the target named is Serine/threonine-protein kinase D3 (Homo sapiens) (UniProt O94806). Put plainly: Inhibition of PKD3 (unknown origin) at 0.164 uM relative to control.
The target in assay [11] is T3, Testis-specific serine/threonine-protein kinase 2 (Homo sapiens). Put plainly: Inhibition of TSSK2 (unknown origin) at 0.164 uM relative to control.
Assay [12] can be described thus: Inhibition of GCK (unknown origin) at 0.164 uM relative to control.
For assay [13], the target named is Casein kinase I isoform epsilon (Homo sapiens) (UniProt P49674). Nature of the assay: Inhibition of CK1-epsilon (unknown origin) at 0.164 uM relative to control.
Chain of Casein kinase I isoform epsilon (Homo sapiens) (P49674 whole entry, looked up, canonical isoform): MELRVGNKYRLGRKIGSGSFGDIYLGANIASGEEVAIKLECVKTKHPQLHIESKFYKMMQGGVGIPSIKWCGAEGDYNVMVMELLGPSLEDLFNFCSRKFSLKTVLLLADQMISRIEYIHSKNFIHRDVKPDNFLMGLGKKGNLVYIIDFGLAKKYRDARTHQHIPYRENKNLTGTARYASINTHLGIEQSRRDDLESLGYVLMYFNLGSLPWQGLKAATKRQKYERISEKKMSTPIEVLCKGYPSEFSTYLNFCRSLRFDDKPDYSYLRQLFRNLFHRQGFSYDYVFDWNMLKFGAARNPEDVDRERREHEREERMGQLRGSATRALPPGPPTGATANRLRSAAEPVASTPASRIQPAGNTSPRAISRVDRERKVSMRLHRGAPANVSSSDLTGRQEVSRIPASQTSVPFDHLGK
Assay [14] addresses Serine/threonine-protein kinase Sgk3 (Homo sapiens) (UniProt Q96BR1). Nature of the assay: Inhibition of SGK3 (unknown origin) at 0.164 uM relative to control.
Assay [15] addresses Epidermal growth factor receptor (Homo sapiens) (UniProt P00533). Put plainly: Inhibition of EGFR (unknown origin) at 0.164 uM relative to control.
Assay [16] has as its target Tyrosine-protein kinase SYK (Homo sapiens) (UniProt P43405). Nature of the assay: Inhibition of SYK (unknown origin) at 0.164 uM relative to control.
For assay [17], the target named is Aurora kinase A (Homo sapiens) (UniProt O14965). Put plainly: Inhibition of AurA (unknown origin) at 0.164 uM relative to control.
Chain of Aurora kinase A (Homo sapiens) (O14965 whole entry): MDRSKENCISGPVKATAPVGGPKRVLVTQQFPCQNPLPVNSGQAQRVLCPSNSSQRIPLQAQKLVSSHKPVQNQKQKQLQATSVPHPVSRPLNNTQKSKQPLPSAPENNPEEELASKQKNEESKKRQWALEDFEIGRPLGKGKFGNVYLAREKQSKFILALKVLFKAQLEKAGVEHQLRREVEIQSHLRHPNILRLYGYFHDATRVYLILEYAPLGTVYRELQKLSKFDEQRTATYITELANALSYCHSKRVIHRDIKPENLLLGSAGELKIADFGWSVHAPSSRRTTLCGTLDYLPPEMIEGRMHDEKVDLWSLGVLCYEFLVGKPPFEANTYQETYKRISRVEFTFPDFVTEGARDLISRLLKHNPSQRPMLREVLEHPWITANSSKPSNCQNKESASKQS
Assay [18] has as its target Calcium/calmodulin-dependent protein kinase type IV (Homo sapiens) (UniProt Q16566). Nature of the assay: Inhibition of CAMK4 (unknown origin) at 0.45 uM relative to control.
The target of assay [19] is RAC-alpha serine/threonine-protein kinase (Homo sapiens) (UniProt P31749). Nature of the assay: Inhibition of AKT1 (unknown origin) at 0.45 uM relative to control.

Chain of Rho-associated protein kinase 2 (Homo sapiens) (O75116 whole entry, looked up): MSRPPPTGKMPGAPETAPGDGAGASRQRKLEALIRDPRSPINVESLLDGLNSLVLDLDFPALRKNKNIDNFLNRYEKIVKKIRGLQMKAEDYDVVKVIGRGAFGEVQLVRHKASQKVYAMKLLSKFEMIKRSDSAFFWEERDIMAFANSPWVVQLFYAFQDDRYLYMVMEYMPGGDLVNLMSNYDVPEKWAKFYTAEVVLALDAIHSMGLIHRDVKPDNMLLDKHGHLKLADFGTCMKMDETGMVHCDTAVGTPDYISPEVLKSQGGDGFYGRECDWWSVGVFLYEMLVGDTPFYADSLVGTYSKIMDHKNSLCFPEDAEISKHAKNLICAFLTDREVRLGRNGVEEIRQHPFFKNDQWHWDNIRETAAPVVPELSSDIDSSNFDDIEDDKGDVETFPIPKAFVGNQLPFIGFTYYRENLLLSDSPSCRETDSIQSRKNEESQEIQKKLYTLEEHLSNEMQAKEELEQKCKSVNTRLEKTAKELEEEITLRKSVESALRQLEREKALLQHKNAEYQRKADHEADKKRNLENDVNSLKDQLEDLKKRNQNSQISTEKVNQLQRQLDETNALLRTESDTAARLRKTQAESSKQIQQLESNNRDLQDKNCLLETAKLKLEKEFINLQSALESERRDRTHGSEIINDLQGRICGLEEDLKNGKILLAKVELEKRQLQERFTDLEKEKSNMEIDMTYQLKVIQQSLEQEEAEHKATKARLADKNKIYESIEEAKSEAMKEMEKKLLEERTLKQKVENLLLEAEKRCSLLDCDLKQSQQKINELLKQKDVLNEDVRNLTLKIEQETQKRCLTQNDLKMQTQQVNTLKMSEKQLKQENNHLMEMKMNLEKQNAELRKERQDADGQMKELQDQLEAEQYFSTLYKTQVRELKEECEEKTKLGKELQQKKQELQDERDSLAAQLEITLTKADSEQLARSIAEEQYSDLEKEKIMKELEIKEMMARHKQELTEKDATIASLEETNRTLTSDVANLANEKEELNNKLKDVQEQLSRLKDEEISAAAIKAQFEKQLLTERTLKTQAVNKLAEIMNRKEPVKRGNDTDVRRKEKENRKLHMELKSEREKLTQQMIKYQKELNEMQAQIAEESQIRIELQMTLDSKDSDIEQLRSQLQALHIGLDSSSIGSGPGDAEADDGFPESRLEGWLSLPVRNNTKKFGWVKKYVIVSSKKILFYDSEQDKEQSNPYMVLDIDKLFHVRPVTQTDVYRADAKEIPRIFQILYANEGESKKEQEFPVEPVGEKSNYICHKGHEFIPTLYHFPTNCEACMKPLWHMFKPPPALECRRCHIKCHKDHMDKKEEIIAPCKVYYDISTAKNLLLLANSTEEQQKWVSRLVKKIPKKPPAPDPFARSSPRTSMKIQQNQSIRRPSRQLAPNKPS
Chain of Serine/threonine-protein kinase Sgk3 (Homo sapiens) (Q96BR1 whole entry): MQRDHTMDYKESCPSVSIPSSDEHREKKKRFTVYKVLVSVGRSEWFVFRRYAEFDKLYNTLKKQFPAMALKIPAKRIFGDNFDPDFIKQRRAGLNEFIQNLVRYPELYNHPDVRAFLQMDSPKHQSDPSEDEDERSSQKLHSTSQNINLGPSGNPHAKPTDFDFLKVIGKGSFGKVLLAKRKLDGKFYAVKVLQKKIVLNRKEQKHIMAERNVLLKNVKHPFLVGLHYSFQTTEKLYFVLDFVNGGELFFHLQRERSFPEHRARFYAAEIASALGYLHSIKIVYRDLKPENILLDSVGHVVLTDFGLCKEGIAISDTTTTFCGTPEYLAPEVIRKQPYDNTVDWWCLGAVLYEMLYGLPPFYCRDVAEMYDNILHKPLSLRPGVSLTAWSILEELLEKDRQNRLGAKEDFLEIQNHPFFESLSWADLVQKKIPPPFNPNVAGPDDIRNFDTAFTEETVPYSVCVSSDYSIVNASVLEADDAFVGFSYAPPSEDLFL
Chain of Epidermal growth factor receptor (Homo sapiens) (P00533 whole entry): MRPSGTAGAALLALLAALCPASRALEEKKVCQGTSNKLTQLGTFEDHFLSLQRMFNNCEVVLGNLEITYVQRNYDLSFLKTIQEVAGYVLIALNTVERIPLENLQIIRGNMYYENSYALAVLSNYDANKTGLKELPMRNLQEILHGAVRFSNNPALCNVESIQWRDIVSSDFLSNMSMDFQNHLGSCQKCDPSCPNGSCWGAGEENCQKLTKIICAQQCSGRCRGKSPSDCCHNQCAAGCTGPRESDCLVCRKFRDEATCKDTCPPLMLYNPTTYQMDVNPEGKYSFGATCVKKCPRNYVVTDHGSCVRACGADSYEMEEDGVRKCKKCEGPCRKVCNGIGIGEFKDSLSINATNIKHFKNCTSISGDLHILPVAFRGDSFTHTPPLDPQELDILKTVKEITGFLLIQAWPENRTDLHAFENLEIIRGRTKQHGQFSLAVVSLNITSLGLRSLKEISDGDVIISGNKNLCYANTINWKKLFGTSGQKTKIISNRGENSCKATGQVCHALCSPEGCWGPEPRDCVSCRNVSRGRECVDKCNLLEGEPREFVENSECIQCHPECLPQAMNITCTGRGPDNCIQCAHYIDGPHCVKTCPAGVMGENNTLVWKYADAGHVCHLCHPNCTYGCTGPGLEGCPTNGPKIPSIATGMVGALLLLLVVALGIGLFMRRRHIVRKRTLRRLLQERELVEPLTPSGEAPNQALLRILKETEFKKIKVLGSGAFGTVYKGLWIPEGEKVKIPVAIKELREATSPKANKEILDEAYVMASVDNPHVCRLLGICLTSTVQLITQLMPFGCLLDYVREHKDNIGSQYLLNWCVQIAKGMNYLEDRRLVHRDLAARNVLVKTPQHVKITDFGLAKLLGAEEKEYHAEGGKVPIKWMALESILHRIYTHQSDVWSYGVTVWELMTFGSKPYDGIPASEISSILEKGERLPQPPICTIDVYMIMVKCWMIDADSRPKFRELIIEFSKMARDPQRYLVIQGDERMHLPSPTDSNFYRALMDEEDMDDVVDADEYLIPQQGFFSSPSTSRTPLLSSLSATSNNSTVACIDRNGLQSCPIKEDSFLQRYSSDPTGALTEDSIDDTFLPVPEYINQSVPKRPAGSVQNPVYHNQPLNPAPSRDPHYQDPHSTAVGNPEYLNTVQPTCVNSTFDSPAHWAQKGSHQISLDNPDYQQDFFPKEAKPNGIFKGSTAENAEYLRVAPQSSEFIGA

By inhibition is commonly meant the relative decrease from the control value, in per cent. With `Cc1[nH]nc(C2CC2)c1-c1ccc2c(-c3ccc(N4CCN(C)CC4)nc3)n[nH]c2c1`, the inhibition in [1] was -1%; in assay [2] it was -9.3%; in assay [3] it was 1.3%; in [4] it was 7%; in assay [5], 0.7%; in assay [6], 19.7%. Moreover, in assay [7], the inhibition was -2%.

With `COC(=O)Nc1cc(-c2c(C3CC3)n[nH]c2C)cc2[nH]ncc12`, the inhibition in [8] was 1%; in assay [9] it was 4.7%; in assay [10] it was 2.7%; in assay [11], -5.7%; in assay [12] it was 7%; in assay [13], 2.7%. For the same molecule, the inhibition is 3% in assay [14], -2% in assay [15], 8% in assay [16] and 6.7% in [17].

With `Cc1n[nH]c(C)c1-c1ccc2c(NC(=O)c3ccc(N4CCN(C)CC4)cc3)n[nH]c2c1`, the inhibition is 0% in assay [18] and -1.7% in assay [19].
